Measurements published in patent US8710077B2, “Cycloalkylamine substituted isoquinoline and isoquinolinone derivatives” (Sanofi, priority 2006, dated 2014).

Molecular target: T1, human recombinant ROCK II (Homo sapiens, UniProt O75116)
T1 construct: recombinant human ROCK-II residues 11-552; His6 (N); purchased Upstate Ltd., Dundee, UK
Assay: Determination of Rho Kinase Inhibition (Caliper peptide phosphorylation assay)
Assay type: biochemical
Conditions: ROCK II residues 11-552, 60 min at 32° C., compound in the form (salt or free base) obtained in the examples
Experimental: Determination of Rho Kinase Inhibition
To measure Rho-kinase inhibition, IC50 values were determined according to the following protocol:
Active human recombinant ROCK II (N-terminal His6-tagged recombinant human ROCK-II residues 11-552) was purchased from Upstate Ltd., Dundee, UK. The peptide substrate, Fluorescein-AKRRRLSSLRA-COOH, was obtained from JPT Peptide Technologies, Berlin, Germany. Adenosine-5′-triphosphate (ATP), bovine serum albumine (BSA), dimethylsulphoxide (DMSO), 4-(2-Hydroxyethyl)piperazine-1-ethanesulfonic acid (Hepes), Brij-35 and dithiothreitol (DTT) were purchased from Sigma-Aldrich, Munich, Germany. Tris(hydroxymethyl)-aminomethane (Tris), magnesium chloride, NaOH, 1M HCl and EDTA were obtained from Merck Biosciences, Darmstadt, Germany. “Complete” protease inhibitor was from Roche Diagnostics, Mannheim, Germany.
Test compounds were diluted to the appropriate concentrations in buffer 1 (25 mM Tris-HCl, pH 7.4, 5 mM MgCl2, 2 mM DTT, 0.02% (w/v) BSA and 3% DMSO). The ROCK II enzyme was diluted to a concentration of 100 ng/ml in buffer 2 (25 mM Tris-HCl, pH 7.4, 5 mM MgCl2, 2 mM DTT and 0.02% (w/v) BSA). The peptide substrate and ATP were diluted to concentrations of 3 μM and 120 μM, respectively, in the buffer 2. Two μl of the compound solution were mixed with 2 μl of the diluted enzyme in a 384-well small volume microtiter plate (Greiner, Bio-One, Frickenhausen, Germany), and the kinase reaction was initiated by addition of 2 μl of the solution containing peptide substrate and ATP. After 60 min incubation at 32° C., the reaction was stopped by addition of 20 μl of a solution containing 100 mM Hepes-NaOH, pH 7.4, 0.015% (v/v) Brij-35, 45 mM EDTA and 0.227% chip coating reagent 1 (Caliper Lifescience Inc, Hopkinton, Mass.). Phosphorylation of the substrate peptide was then detected on a Caliper 3000 instrument essentially as described by Pommereau et al (J. Biomol. Screening 9 (5), 409-416, 2004). Separation conditions were as follows: Pressure—1.3 psi, upstream voltage—1562 V, downstream voltage—500 V, sample sip time 200 ms. Positive controls (buffer 1 instead of compound) and negative controls (buffer 1 instead of compound and buffer 2 instead of ROCK II) were run in parallel on each plate.
The following products/compounds were tested in said assay by using the respective form (salt or free base) obtained as in the examples described above and the following activities were measured.

T1 sequence (O75116 11-552): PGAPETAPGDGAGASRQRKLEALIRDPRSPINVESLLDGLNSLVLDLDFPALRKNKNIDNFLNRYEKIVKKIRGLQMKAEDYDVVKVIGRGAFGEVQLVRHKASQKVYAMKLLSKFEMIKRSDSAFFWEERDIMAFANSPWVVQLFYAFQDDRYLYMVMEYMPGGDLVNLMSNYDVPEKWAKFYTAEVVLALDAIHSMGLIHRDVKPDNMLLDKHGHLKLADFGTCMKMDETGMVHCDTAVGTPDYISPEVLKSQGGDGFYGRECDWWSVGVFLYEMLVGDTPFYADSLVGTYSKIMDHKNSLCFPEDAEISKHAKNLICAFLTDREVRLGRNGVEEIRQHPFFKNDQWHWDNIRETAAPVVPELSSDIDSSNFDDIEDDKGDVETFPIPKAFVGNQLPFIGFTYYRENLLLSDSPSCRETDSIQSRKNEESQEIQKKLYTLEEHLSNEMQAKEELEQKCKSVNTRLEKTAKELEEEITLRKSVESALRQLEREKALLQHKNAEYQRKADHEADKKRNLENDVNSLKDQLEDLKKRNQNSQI

| SMILES | IC50 [µM] |
| --- | --- |
| NCC1(c2ccccc2)CCC(Oc2cc3cc[nH]c(=O)c3cc2Cl)CC1 (stereo not drawn) [Compound 108, 6-(4-Aminomethyl-4-phenyl-cyclohexyloxy)-7-chloro-2H-isoquinolin-1-one] | ≤ 1 |
| NCC1(c2ccc(F)cc2)CCC(Oc2cc3cc[nH]c(=O)c3cc2Cl)CC1 (stereo not drawn) [Compound 113, 6-[4-Aminomethyl-4-(4-fluoro-phenyl)-cyclohexyloxy]-7-chloro-2H-isoquinolin-1-one] | ≤ 1 |
| NC1(CC(O)CO)CCC(Oc2cc3cc[nH]c(=O)c3cc2Cl)CC1 (mixture of isomers) [Compound 57, 6-[4-amino-4-(2,3-dihydroxy-propyl)-cyclohexyloxy]-7-chloro-2H-isoquinolin-1-one] | ≤ 1 |
| NCC1(c2ccc(Cl)cc2)CCC(Oc2cc3cc[nH]c(=O)c3cc2Cl)CC1 (stereo not drawn) [Compound 109, 6-[4-Aminomethyl-4-(4-chloro-phenyl)-cyclohexyloxy]-7-chloro-2H-isoquinolin-1-one] | ≤ 1 |
| N[C@]1(C2CC2)CC[C@H](Oc2cc3cc[nH]c(=O)c3cc2Cl)CC1 [Compound 41, 6-(cis-4-Amino-4-cyclopropyl-cyclohexyloxy)-7-chloro-2H-isoquinolin-1-one] | ≤ 1 |
| C=CCC1(N)CCC(Oc2cc3cc[nH]c(=O)c3cc2Cl)CC1 (mixture of isomers) [Compound 20, 6-(4-Allyl-4-amino-cyclohexyloxy)-7-chloro-2H-isoquinolin-1-one] | ≤ 1 |
| Cc1cccc(C2(CN)CCC(Oc3cc4cc[nH]c(=O)c4cc3Cl)CC2)c1 (stereo not drawn) [Compound 111, 6-[4-Aminomethyl-4-(3-methyl-phenyl)-cyclohexyloxy]-7-chloro-2H-isoquinolin-1-one] | 1 to 10 |
| NCC1(c2cccc(Cl)c2)CCC(Oc2cc3cc[nH]c(=O)c3cc2Cl)CC1 (stereo not drawn) [Compound 110, 6-[4-Aminomethyl-4-(3-chloro-phenyl)-cyclohexyloxy]-7-chloro-2H-isoquinolin-1-one] | ≤ 1 |
| COc1ccc(C2(CN)CCC(Oc3cc4cc[nH]c(=O)c4cc3Cl)CC2)cc1 (stereo not drawn) [Compound 114, 6-[4-Aminomethyl-4-(4-methoxy-phenyl)-cyclohexyloxy]-7-chloro-2H-isoquinolin-1-one] | ≤ 1 |
| NCC1(c2ccccc2)CCC(Oc2cc3ccncc3cc2Cl)CC1 (stereo not drawn) [Compound 120, C-[4-(7-Chloro-isoquinolin-6-yloxy)-1-phenyl-cyclohexyl]-methylamine] | ≤ 1 |
| NCC1(c2ccc(Cl)c(Cl)c2)CCC(Oc2cc3cc[nH]c(=O)c3cc2Cl)CC1 (stereo not drawn) [Compound 116, 6-[4-Aminomethyl-4-(3,4-dichloro-phenyl)-cyclohexyloxy]-7-chloro-2H-isoquinolin-1-one] | ≤ 1 |
| COc1ccc(C2(CN)CCC(Oc3cc4cc[nH]c(=O)c4cc3Cl)CC2)cc1OC (stereo not drawn) [Compound 112, 6-[4-Aminomethyl-4-(3,4-dimethoxy-phenyl)-cyclohexyloxy]-7-chloro-2H-isoquinolin-1-one] | ≤ 1 |
